Data reported in patent US20260151403A1, “NEK7 DEGRADERS AND METHODS OF USE THEREOF” (Captor Therapeutics S.A., priority 2022, published 2026).

Legend:
NEK7 protein = NEK7 protein (Homo sapiens, UniProt Q8TDX7+Q96SW2); assay: NEK7 protein degradation determined by Western blot in human PBMC-derived macrophages; type: cell-based; details: 24 h; for remaining NEK7 protein amount at 10 µM: densitometric values normalized to loading control, read-out: Amount of NEK7 protein (% of DMSO control); for NEK7 protein degradation (Western blotting, in words): FIG. 1
Method: (§1) Macrophages were differentiated from human PBMCs isolated from buffy coats from healthy donors.
(§2) Buffy coats were diluted 1:1 (v/v) with DPBS (Sigma-Aldrich) in falcon tubes. After reconstitution, suspension was carefully layered on Histopaque-1077 solution (Sigma-Aldrich) and centrifuged (760×g, RT, 20 min; Brakes Off). PBMCs were collected and washed with DPBS (3× at 350×g, RT, 8 min and 1× at 200×g, RT, 10 min; Brakes On). Subsequently, cells were resuspended in appropriate volume of RPMI 1640 medium (Gibco) supplemented with 10% of heat-inactivated FBS (Gibco) and 1% of Penicillin-Streptomycin Solution 100x (Biowest). Cell viability was measured using trypan blue solution (Sigma-Aldrich).
(§3) 10×10^6 of PBMCs per well were seeded on 6-well plates in complete medium supplemented with 10 ng/ml of M-CSF growth factor (R&D Systems). Differentiation was conducted for a week with medium replacement every 2-3 days. Differentiation of PBMCs into mature macrophages was confirmed by microscopic evaluation and FACS surface staining for the following markers: CD11b, CD14, CD16 (BD Pharmingen). Differentiated macrophages were subjected on NLRP3 inflammasome activation assay.
(§4) Human PBMC-derived macrophages were pre-treated for 24 h with exemplary compounds at the specific concentrations. Dilutions of tested compound were prepared in DMSO. Afterwards cells were primed with 1 μg/ml of LPS (Invivogen) for 3 h and NLRP3 inflammasomes were activated with 5 μM of nigericin solution (Invivogen) for 1 h. Supernatants were centrifuged and stored for ELISA assays and cell lysates were prepared for Western blotting analysis.
Cell lysates from Human PBMC-derived macrophages were prepared by direct lysis in 40 μl RIPA lysis buffer (50 mM Tris·HCl pH 7.4, 150 mM NaCl, 1% NP-40, 0.25% sodium deoxycholate, 0.1% SDS and 1 mM EDTA) supplemented with protease and phosphatase inhibitors (cOmplete EDTA-free Protease Inhibitor Cocktail, Roche; Halt™ Phosphatase Inhibitor Cocktail, Thermo Scientific). Subsequently, lysates were snap frozen in liquid nitrogen and stored in −20° C. Following thawing, lysates were centrifuged at 4° C., 19 000×g for 15 min for supernatants collection. The protein concentration in each sample was determined by BCA method (Pierce BCA Protein Assay Kit, Thermo Fischer Scientific). The absorbance was measured using CLARIOstar Multimode Plate Reader at 562 nm. SDS-PAGE samples were prepared by mixing the lysates with 5×SB and RIPA buffer. Denaturation of the samples was performed by incubation at 95° C. for 5 minutes.
The protein samples were resolved on 4-20% TGX Stain-Free™ protein gels (Bio-Rad) and transferred onto nitrocellulose membranes (Bio-Rad) using Trans-Blot® Turbo system (Bio-Rad). Membranes were blocked in 5% non-dried milk (NFM) in TBS-T (10 mM Tris, 150 mM NaCl, 0.1% Tween-20) for 1 h at room temperature (RT). Membranes were incubated with primary antibodies for NEK7 (O/N, 4° C.) and loading control—β-Actin (1 h, RT) diluted in 5% NFM in TBS-T, followed by incubation with the appropriate horseradish peroxidase (HRP) conjugated secondary antibody diluted in 5% NFM in TBS-T for 1 h in RT. Between each antibody incubation, the membranes were washed in TBS-T. Membranes were developed using SuperSignal West Pico PLUS chemiluminescent substrate (ThermoScientific). Membrane images were captured using Chemi Doc Imager. The analysis was performed in Image Lab software. Densitometric values for NEK7 protein were normalized to the loading control and calculated as a relative to the cells treated with DMSO control.
NEK7-HiBiT degradation results were further confirmed for selected compounds in human PBMC-derived macrophages.

[1] = target: [NEK7]-[compound of formula (I)]-[CRBN/DDB1] complex (Homo sapiens, UniProt Q8TDX7+Q96SW2); assay: AlphaLISA dose response ternary complex formation assay; type: binding; details: 1 μM compound; normalized to maximum signal of Compound 2 (positive control) and DMSO background; read-out: Normalized AlphaLISA ternary complex average signal at 1 μM molecule
Summary of the method: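 Biotinylated NEK7 (200 nM) on streptavidin donor beads and 6×His-CRBN/Strep-DDB1 (200 nM) on anti-His acceptor beads, each at 40 μg/ml and preincubated 30 min, then mixed and added to compound in HBS pH 7.4, 0.1% Tween-20, 1 mM DTT, 2% DMSO. After 30 min at 25 °C, AlphaLISA signal was read (ex 680/em 615 nm) and normalised to DMSO background and maximal Compound 2 signal.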

[2] = system: IL-18 release (NLRP3 inflammasome activation); assay: NLRP3 inflammasome activation assay, IL-18 release (ELISA) in human PBMC-derived macrophages; type: cell-based; details: 10 μM, 24 h pre-treatment, then LPS 3 h and nigericin 1 h
Method: as §1, §2, §3, §4
IL-1β and IL-18 level was quantified using ELISA assays (R&D Systems) according to the manufacturer's protocol. 96-well plates were coated overnight with appropriate capture antibodies. Plates were blocked and incubated at RT for a minimum of 1 h. Samples or standards were added and incubated for 2 h in RT. Next, biotinylated anti-human IL-1β or IL-18 detection antibodies were added for 2 h in RT. Strepatividin-HRP solution was added for 20 min of incubation. Subsequently, substrate solution was added for 20 min. Between each step washing procedure was performed. The reaction was stopped, and optical density was determined using CLARIOstar Multimode Plate reader set to 450 nm with wavelength correction set to 570 nm. The analysis was performed with GraphPad Prism Software and Excel spreadsheet.
To evaluate compound effect on inflammasome activation (measured as IL-1β and IL-18 release), human PBMC-derived macrophages were treated with individual compounds for 24 h prior to inflammasome activation. As shown in the Table 4 and in FIGS. 2A and 2B, after 24 h of pre-treatment with exemplary compounds, a dose-dependent decrease of cytokines level was noted.

Sequence of [NEK7]-[compound of formula (I)]-[CRBN/DDB1] complex (Q8TDX7 whole entry): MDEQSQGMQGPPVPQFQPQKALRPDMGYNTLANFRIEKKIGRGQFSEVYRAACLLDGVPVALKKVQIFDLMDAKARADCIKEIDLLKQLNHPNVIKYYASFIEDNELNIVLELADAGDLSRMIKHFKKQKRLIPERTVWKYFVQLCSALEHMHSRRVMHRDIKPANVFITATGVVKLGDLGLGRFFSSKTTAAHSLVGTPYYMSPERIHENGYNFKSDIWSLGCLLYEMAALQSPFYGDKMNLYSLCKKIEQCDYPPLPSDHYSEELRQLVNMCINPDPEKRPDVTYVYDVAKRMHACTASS
Sequence of [NEK7]-[compound of formula (I)]-[CRBN/DDB1] complex (Q96SW2 whole entry): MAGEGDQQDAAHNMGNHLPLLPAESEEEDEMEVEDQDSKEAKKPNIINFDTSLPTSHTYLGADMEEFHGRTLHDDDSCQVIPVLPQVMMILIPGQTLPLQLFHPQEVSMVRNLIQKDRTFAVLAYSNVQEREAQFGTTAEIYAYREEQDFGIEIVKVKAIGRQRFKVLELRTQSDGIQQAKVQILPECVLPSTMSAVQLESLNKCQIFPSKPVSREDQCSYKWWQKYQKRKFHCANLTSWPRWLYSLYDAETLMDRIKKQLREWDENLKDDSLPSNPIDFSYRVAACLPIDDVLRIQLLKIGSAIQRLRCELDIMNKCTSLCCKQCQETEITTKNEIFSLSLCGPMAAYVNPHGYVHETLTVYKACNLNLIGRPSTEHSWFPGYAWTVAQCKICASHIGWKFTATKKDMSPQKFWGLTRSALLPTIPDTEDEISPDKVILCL
Sequence of [NEK7]-[compound of formula (I)]-[CRBN/DDB1] complex (Q16531 whole entry partner): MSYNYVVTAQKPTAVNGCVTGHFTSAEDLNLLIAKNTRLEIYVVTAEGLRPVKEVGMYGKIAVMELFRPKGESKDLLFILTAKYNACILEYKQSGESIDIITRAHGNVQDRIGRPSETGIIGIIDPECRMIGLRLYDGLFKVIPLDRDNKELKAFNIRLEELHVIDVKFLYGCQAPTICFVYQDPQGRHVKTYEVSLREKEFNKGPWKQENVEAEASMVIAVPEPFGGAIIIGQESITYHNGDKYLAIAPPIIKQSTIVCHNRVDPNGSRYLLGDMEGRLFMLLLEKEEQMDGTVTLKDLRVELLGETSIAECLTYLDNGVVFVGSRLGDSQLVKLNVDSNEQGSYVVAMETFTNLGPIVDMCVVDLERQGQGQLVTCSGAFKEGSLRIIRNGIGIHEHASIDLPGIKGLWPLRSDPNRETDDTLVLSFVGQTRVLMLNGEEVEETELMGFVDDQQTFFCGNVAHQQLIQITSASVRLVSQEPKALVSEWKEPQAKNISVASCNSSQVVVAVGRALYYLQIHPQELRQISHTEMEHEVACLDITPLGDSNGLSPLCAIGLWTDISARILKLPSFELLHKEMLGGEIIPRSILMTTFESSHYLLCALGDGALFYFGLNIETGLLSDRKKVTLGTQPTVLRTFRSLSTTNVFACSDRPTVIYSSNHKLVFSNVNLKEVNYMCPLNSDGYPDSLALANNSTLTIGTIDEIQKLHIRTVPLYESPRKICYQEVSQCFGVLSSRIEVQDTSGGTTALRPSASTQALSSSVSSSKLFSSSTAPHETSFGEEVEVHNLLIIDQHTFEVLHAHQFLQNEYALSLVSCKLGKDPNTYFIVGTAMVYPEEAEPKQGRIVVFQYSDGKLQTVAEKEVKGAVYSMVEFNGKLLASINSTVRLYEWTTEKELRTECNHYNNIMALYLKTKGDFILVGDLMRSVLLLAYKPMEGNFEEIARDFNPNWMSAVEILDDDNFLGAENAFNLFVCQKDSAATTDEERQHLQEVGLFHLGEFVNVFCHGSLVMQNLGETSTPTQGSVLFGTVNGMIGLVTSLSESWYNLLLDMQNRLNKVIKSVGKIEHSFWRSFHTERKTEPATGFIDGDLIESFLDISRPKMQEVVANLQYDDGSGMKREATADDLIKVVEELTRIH
Sequence of NEK7 protein (Q8TDX7 whole entry): as the sequence (Q8TDX7 whole entry) above
Sequence of NEK7 protein (Q96SW2 whole entry): as the sequence (Q96SW2 whole entry) above
Sequence of NEK7 protein (Q16531 whole entry partner): as the sequence (Q16531 whole entry partner) above

Row | remaining NEK7 protein amount at 10 µM (NEK7 protein) | activation at 1 µM [1] | NEK7 protein degradation (Western blotting, in words) (NEK7 protein) | SMILES | Level of released IL-18 (% of DMSO control) [2]
1 | 40 to 75% | < 10% | – | O=C1CCC(N2Cc3cc(C4CCCCN4)c(F)cc3C2=O)C(=O)N1 (stereo not shown) [Compound 23, 3-(6-fluoro-1-oxo-5-(piperidin-2-yl)isoindolin-2-yl)piperidine-2,6-dione] | –
2 | 40 to 75% | < 10% | – | Cc1c(C2CCCCN2)ccc2c1CN(C1CCC(=O)NC1=O)C2=O (stereo not shown) [Compound 19, 3-(4-methyl-1-oxo-5-(piperidin-2-yl)isoindolin-2-yl)piperidine-2,6-dione] | C (Levels of released cytokines > 50% and <75%)
3 | 40 to 75% | > 80% | – | O=C1CCC(N2Cc3cc(-c4ccccn4)ccc3C2=O)C(=O)N1 (stereo not shown) [2(2), 3-(1-oxo-5-(pyridin-2-yl)isoindolin-2-yl)piperidine-2,6-dione] | –
4 | ≤ 10% | > 80% | NEK7 protein degradation | CC1c2cc(C3CCCCN3)ccc2C(=O)N1C1CCC(=O)NC1=O (stereo not shown) [Compound 25, 3-(3-methyl-1-oxo-5-(piperidin-2-yl)isoindolin-2-yl)piperidine-2,6-dione] | A (Levels of released cytokines ≤ 25%)
5 | 40 to 75% | > 80% | – | O=C1CCC(N2Cc3cc(-c4ccc(-c5ccccc5)cn4)ccc3C2=O)C(=O)N1 (stereo not shown) [4(2), 3-(1-oxo-5-(5-phenylpyridin-2-yl)isoindolin-2-yl)piperidine-2,6-dione] | B (Levels of released cytokines > 25% and ≤50%)
6 | 10 to 40% | > 80% | NEK7 protein degradation | O=C1CCC(N2Cc3cc(C4CCCCN4)ccc3C2=O)C(=O)N1 (stereo not shown) [Compound 2, 3-(1-oxo-5-(piperidin-2-yl)isoindolin-2-yl)piperidine-2,6-dione] | A (Levels of released cytokines ≤ 25%)
7 | ≤ 10% | > 80% | NEK7 protein degradation | CC1c2cc(C3CCCCO3)ccc2C(=O)N1C1CCC(=O)NC1=O (stereo not shown) [Compound 64, 3-(3-methyl-1-oxo-5-(tetrahydro-2H-pyran-2-yl)isoindolin-2-yl)piperidine-2,6-dione] | A (Levels of released cytokines ≤ 25%)
